Measurements published in patent publication US11426412B2, “Imidazo-pyridine compounds as PAD inhibitors” (JUBILANT EPIPAD LLC, priority 2017, dated 2022).
Counter-ions that a name gives are not always drawn. Like-named read-outs stand apart in the source and are kept apart here.

Molecular target: PAD4 (Homo sapiens (Human), UniProt Q9UM07)
Assay: Ammonia release biochemical assay (citrullination)
[1] = read-out: NH3 release biochemical assay PAD4 IC50
[2] = Table 1, class A, read-out: IC50 value, ammonia release biochemical assay

Sequence of PAD4 (Q9UM07 whole entry): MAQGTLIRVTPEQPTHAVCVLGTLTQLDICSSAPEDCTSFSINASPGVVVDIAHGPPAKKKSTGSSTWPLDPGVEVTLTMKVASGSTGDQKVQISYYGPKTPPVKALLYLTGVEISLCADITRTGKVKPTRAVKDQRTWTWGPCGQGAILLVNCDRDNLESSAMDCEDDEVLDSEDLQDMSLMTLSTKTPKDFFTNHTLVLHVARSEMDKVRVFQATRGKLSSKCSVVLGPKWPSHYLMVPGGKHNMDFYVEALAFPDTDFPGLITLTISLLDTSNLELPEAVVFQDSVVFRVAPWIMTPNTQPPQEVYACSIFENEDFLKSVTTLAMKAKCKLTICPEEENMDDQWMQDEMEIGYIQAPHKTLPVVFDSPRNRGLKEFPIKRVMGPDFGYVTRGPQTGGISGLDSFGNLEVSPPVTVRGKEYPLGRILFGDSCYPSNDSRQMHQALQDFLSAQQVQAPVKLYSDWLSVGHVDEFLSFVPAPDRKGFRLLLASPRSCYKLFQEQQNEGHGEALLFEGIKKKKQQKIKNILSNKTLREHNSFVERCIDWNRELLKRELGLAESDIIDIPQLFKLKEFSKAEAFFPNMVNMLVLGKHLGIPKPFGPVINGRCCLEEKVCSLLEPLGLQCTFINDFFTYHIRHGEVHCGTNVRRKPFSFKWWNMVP
Procedure: Ammonia Release Biochemical Assay
Citrullination assay was detected via ammonia release. […] The reaction was stopped after 60 min by addition of stop/detection buffer containing 50 mM EDTA, 2.6 mM of o-phthaladehyde and 2.6 mM DTT.

| SMILES | IC50 [1] [µM] | IC50 [2] [µM] |
| --- | --- | --- |
| Cc1c(-c2c(Br)c3ccccc3n2CC2CC2)nc2cc(C(=O)N3CCC[C@@H](N)C3)ccn12 [Compound 1, (R)-(3-Aminopiperidin-1-yl)(2-(3-bromo-1-(cyclopropylmethyl)-1H-indol-2-yl)-3-methylimidazo[1,2-a]pyridin-7-yl)methanone] | > 10 | – |
| CCn1c(-c2nc3cc(C(=O)N4CCC[C@@H](N)C4)ccn3c2C)cc2ccccc21 [Compound 4, (R)-(3-Aminopiperidin-1-yl)(2-(1-ethyl-1H-indol-2-yl)-3-methylimidazo[1,2-a]pyridin-7-yl)methanone] | < 1 | ≤ 1 |
| CCn1c(-c2nc3cc(C(=O)N4CCC[C@@H](N)C4)ccn3c2C)c(-c2ccccc2)c2ccccc21 [Compound 5, (R)-(3-Aminopiperidin-1-yl)(2-(1-ethyl-3-phenyl-1H-indol-2-yl)-3-methylimidazo[1,2-a]pyridin-7-yl)methanone] | > 10 | – |
| CCn1c(-c2nc3cc(C(=O)N4CC[C@@H](N)C4)ccn3c2C)c(-c2ccccc2)c2ccccc21 [Compound 6, (R)-(3-Aminopyrrolidin-1-yl)(2-(1-ethyl-3-phenyl-1H-indol-2-yl)-3-methylimidazo[1,2-a]pyridin-7-yl)methanone] | > 10 | – |
| CCn1c(-c2nc3cc(C(=O)N4CC[C@@H](N)C4)ccn3c2C)cc2ccccc21 [Compound 7, (R)-(3-Aminopyrrolidin-1-yl)(2-(1-ethyl-1H-indol-2-yl)-3-methylimidazo[1,2-a]pyridin-7-yl)methanone] | > 10 | – |
| Cc1c(-c2cc3ccccc3n2CC2CC2)nc2cc(C(=O)N3CC[C@@H](N)C3)ccn12 [Compound 8, (R)-(3-Aminopyrrolidin-1-yl)(2-(1-(cyclopropylmethyl)-1H-indol-2-yl)-3-methylimidazo[1,2-a]pyridin-7-yl)methanone] | > 10 | – |
| Cc1c(-c2cc3ccccc3n2Cc2cccc(F)c2)nc2cc(C(=O)N3CCC[C@@H](N)C3)ccn12 [Compound 35, (R)-(3-aminopiperidin-1-yl)(2-(1-(3-fluorobenzyl)-1H-indol-2-yl)-3-methylimidazo[1,2-a]pyridin-7-yl)methanone] | < 1 | – |
| Cc1c(-c2cc3ccccc3n2Cc2ccoc2)nc2cc(C(=O)N3CCC[C@@H](N)C3)ccn12 [Compound 37, (R)-(3-aminopiperidin-1-yl)(2-(1-(furan-3-ylmethyl)-1H-indol-2-yl)-3-methylimidazo[1,2-a]pyridin-7-yl)methanone] | < 1 | – |
| Cc1csc(Cn2c(-c3nc4cc(C(=O)N5CCC[C@@H](N)C5)ccn4c3C)cc3ccccc32)n1 [Compound 41, (R)-(3-aminopiperidin-1-yl)(3-methyl-2-(1-((4-methylthiazol-2-yl)methyl)-1H-indol-2-yl)imidazo[1,2-a]pyridin-7-yl)methanone] | < 1 | ≤ 1 |
| Cc1c(-c2cc3cccc(Cl)c3n2CC2CC2)nc2cc(C(=O)N3CCC[C@@H](N)C3)ccn12 [Compound 44, (R)-(3-aminopiperidin-1-yl)(2-(7-chloro-1-(cyclopropylmethyl)-1H-indol-2-yl)-3-methylimidazo[1,2-a]pyridin-7-yl)methanone] | < 1 | ≤ 1 |
| Cc1c(-c2cc3ccccc3n2Cc2ccc(F)cc2)nc2cc(C(=S)N3CCC[C@@H](N)C3)ccn12 [Compound 45, (R)-(3-aminopiperidin-1-yl)(2-(1-(4-fluorobenzyl)-1H-indol-2-yl)-3-methylimidazo[1,2-a]pyridin-7-yl)methanethione] | < 1 | ≤ 1 |
| Cc1c(-c2cc3ccccc3n2C)nc2cc(C(=O)N3CCC[C@@H](N)C3)ccn12 [Compound 46, (R)-(3-aminopiperidin-1-yl)(3-methyl-2-(1-methyl-1H-indol-2-yl)imidazo[1,2-a]pyridin-7-yl)methanone] | > 10 | – |
| COc1cccc2cc(-c3nc4cc(C(=O)N5CCC[C@@H](N)C5)ccn4c3C)n(CC3CC3)c12 [Compound 47, (R)-(3-aminopiperidin-1-yl)(2-(1-(cyclopropylmethyl)-7-methoxy-1H-indol-2-yl)-3-methylimidazo[1,2-a]pyridin-7-yl)methanone] | < 1 | ≤ 1 |
| Cc1ncc(Cn2c(-c3nc4cc(C(=O)N5CCC[C@@H](N)C5)ccn4c3C)cc3ccccc32)s1 [Compound 49, (R)-(3-aminopiperidin-1-yl)(3-methyl-2-(1-((2-methylthiazol-5-yl)methyl)-1H-indol-2-yl)imidazo[1,2-a]pyridin-7-yl)methanone] | < 1 | ≤ 1 |
| COc1ccc2cc(-c3nc4cc(C(=O)N5CCC[C@@H](N)C5)ccn4c3C)n(Cc3cccnc3)c2c1 [Compound 51, (R)-(3-aminopiperidin-1-yl) (2-(6-methoxy-1-(pyridin-3-ylmethyl)-1H-indol-2-yl)-3-methylimidazo[1,2-a]pyridin-7-yl)methanone] | < 1 | – |
| COc1cccc(Cn2c(-c3nc4cc(C(=O)N5CCC[C@@H](N)C5)ccn4c3C)cc3cc(F)ccc32)c1 [Compound 53, (R)-(3-aminopiperidin-1-yl)(2-(5-fluoro-1-(3-methoxybenzyl)-1H-indol-2-yl)-3-methylimidazo[1,2-a]pyridin-7-yl)methanone] | < 1 | – |

| SMILES | IC50 [1] [µM] | IC50 [2] [µM] |
| --- | --- | --- |
| Cc1c(-c2cc3ccc(F)cc3n2Cc2ccc(F)cc2)nc2cc(C(=O)N3CCC[C@@H](N)C3)ccn12 [Compound 54, (R)-(3-aminopiperidin-1-yl)(2-(6-fluoro-1-(4-fluorobenzyl)-1H-indol-2-yl)-3-methylimidazo[1,2-a]pyridin-7-yl)methanone] | < 1 | – |
| COc1cccc(Cn2c(-c3nc4cc(C(=O)N5CCC[C@@H](N)C5)ccn4c3C)cc3cc(F)c(F)cc32)c1 [Compound 55, (R)-(3-aminopiperidin-1-yl)(2-(5,6-difluoro-1-(3-methoxybenzyl)-1H-indol-2-yl)-3-methylimidazo[1,2-a]pyridin-7-yl)methanone] | < 1 | – |
| Cc1c(-c2cc3ccccc3n2Cc2cncnc2)nc2cc(C(=O)N3CCC[C@@H](N)C3)ccn12 [Compound 58, (R)-(3-aminopiperidin-1-yl) (3-methyl-2-(1-(pyrimidin-5-ylmethyl)-1H-indol-2-yl)imidazo[1,2-a]pyridin-7-yl)methanone Trifluoroacetic Acid Salt] | < 1 | ≤ 1 |
| Cc1c(-c2cc3ccccc3n2CC(C)C)nc2cc(C(=O)N3CCC[C@@H](N)C3)ccn12 [Compound 60, (R)-(3-aminopiperidin-1-yl)(2-(1-isobutyl-1H-indol-2-yl)-3-methylimidazo[1,2-a]pyridin-7-yl)methanone] | < 1 | – |
| Cc1c(-c2cc3ccccc3n2CC2CCC2)nc2cc(C(=O)N3CCC[C@@H](N)C3)ccn12 [Compound 61, (R)-(3-aminopiperidin-1-yl)(2-(1-(cyclobutylmethyl)-1H-indol-2-yl)-3-methylimidazo[1,2-a]pyridin-7-yl)methanone] | < 1 | – |
| Cc1c(-c2cc3ccccc3n2Cc2ncccc2F)nc2cc(C(=O)N3CCC[C@@H](N)C3)ccn12 [Compound 62, (R)-(3-aminopiperidin-1-yl)(2-(1-((3-fluoropyridin-2-yl)methyl)-1H-indol-2-yl)-3-methylimidazo[1,2-a]pyridin-7-yl)methanone] | < 1 | – |
| COc1ccc(Cn2c(-c3nc4cc(C(=O)N5CCC[C@@H](N)C5)ccn4c3C)cc3ccccc32)nc1 [Compound 63, (R)-(3-aminopiperidin-1-yl)(2-(1-((5-methoxypyridin-2-yl)methyl)-1H-indol-2-yl)-3-methylimidazo[1,2-a]pyridin-7-yl)methanone] | < 1 | – |
| COCCn1c(-c2nc3cc(C(=O)N4CCC[C@@H](N)C4)ccn3c2C)cc2ccccc21 [Compound 64, (R)-(3-aminopiperidin-1-yl) (2-(1-(2-methoxyethyl)-1H-indol-2-yl)-3-methylimidazo[1,2-a]pyridin-7-yl)methanone] | < 1 | – |
| COc1ccc2cc(-c3nc4cc(C(=O)N5CCC[C@@H](N)C5)ccn4c3C)n(Cc3ccncc3)c2c1 [Compound 66, (R)-(3-aminopiperidin-1-yl)(2-(6-methoxy-1-(pyridin-4-ylmethyl)-1H-indol-2-yl)-3-methylimidazo[1,2-a]pyridin-7-yl)methanone] | > 10 | – |
| CCn1c(-c2nc3cc(C(=O)N4CCC[C@@H](N)C4)ccn3c2C)cc2ccc(OC)cc21 [Compound 67, (R)-(3-aminopiperidin-1-yl)(2-(1-ethyl-6-methoxy-1H-indol-2-yl)-3-methylimidazo[1,2-a]pyridin-7-yl)methanone] | < 1 | – |
| Cc1c(-c2cc3ccc(F)cc3n2Cc2ccncc2)nc2cc(C(=O)N3CCC[C@@H](N)C3)ccn12 [Compound 68, (R)-(3-aminopiperidin-1-yl)(2-(6-fluoro-1-(pyridin-4-ylmethyl)-1H-indol-2-yl)-3-methylimidazo[1,2-a]pyridin-7-yl)methanone] | < 1 | – |
| Cc1c(-c2cc3ccc(F)cc3n2Cc2cccnc2)nc2cc(C(=O)N3CCC[C@@H](N)C3)ccn12 [Compound 69, (R)-(3-aminopiperidin-1-yl)(2-(6-fluoro-1-(pyridin-3-ylmethyl)-1H-indol-2-yl)-3-methylimidazo[1,2-a]pyridin-7-yl)methanone] | < 1 | – |
| COc1cccc(Cn2c(-c3nc4cc(C(=O)N5CCC[C@@H](N)C5)ccn4c3C)cc3ccc(F)cc32)c1 [Compound 70, (R)-(3-aminopiperidin-1-yl)(2-(6-fluoro-1-(3-methoxybenzyl)-1H-indol-2-yl)-3-methylimidazo[1,2-a]pyridin-7-yl)methanone] | < 1 | – |
| COc1ccc(Cn2c(-c3nc4cc(C(=O)N5CCC[C@@H](N)C5)ccn4c3C)cc3ccc(F)cc32)cc1 [Compound 71, (R)-(3-aminopiperidin-1-yl)(2-(6-fluoro-1-(4-methoxybenzyl)-1H-indol-2-yl)-3-methylimidazo[1,2-a]pyridin-7-yl)methanone] | < 1 | – |
| CCn1c(-c2nc3cc(C(=O)N4CCC[C@@H](N)C4)ccn3c2C)cc2ccc(F)cc21 [Compound 72, (R)-(3-aminopiperidin-1-yl)(2-(1-ethyl-6-fluoro-1H-indol-2-yl)-3-methylimidazo[1,2-a]pyridin-7-yl)methanone] | < 1 | – |
